According to paper PMC4791841, “Nanomolar Inhibitors of Trypanosoma brucei RNA Triphosphatase” (mBio, 2016):
Where two headings read alike, the source gives them in different places.

Key:
[1] = system: Leishmania amazonensis; design: method as in PMID 25880257; conditions: cited from earlier work
[2] = system: Trypanosoma cruzi amastigotes; design: method as in PMID 25880257; conditions: cited from earlier work
[3] = molecular target: T1, TbCet1 (Trypanosoma brucei brucei, UniProt Q582T2); test: TLC assay for 32Pi release from [γ-32P]ATP, TbCet1; conditions: for IC50: 2.2 nM TbCet1, 0.2 mM ATP, 2 mM Mn2+, 10 min 37°C
T1 sequence (Q582T2 1-253): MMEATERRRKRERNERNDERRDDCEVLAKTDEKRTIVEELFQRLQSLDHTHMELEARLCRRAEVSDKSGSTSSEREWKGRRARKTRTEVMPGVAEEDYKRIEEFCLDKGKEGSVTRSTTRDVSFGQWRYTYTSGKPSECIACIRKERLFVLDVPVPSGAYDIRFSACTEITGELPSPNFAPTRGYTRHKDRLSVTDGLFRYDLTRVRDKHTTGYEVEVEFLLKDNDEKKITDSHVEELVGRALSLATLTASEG

[4] = molecular target: T1, TbCet1; test: colorimetric malachite green HTS assay of Pi release from ATP by TbCet1
[5] = molecular target: T2, MimiCE (Acanthamoeba polyphaga mimivirus, UniProt Q5UQX1); test: biochemical; type: biochemical; conditions: for IC50/IC50 TbCet1, MimiCE: ratio in parentheses;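 as to all read-outs here: mimivirus capping enzyme triphosphatase ATPase reaction, radiolabeled ATP hydrolysis to Pi quantified by TLC after 10 min, normalized to no-inhibitor control with 5% DMSO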
T2 construct: the N-terminal RTPase domain (amino acids [aa] 1 to 237) of mimivirus capping enzyme (MimiCE); HisSmt3 (N, cleaved yes); made in house; host or cells: Escherichia coli
T2 sequence (Q5UQX1 1-237): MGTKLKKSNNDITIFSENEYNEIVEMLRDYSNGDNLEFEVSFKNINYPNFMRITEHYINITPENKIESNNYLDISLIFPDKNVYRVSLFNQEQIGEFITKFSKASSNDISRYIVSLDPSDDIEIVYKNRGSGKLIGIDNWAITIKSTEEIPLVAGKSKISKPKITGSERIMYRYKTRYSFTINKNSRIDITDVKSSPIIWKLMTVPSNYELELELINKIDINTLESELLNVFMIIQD

[6] = molecular target: T3, SceCet1 (Saccharomyces cerevisiae, UniProt O13297); test: TLC assay for 32Pi release from [γ-32P]ATP, SceCet1; type: biochemical; conditions: for IC50/IC50 TbCet1, SceCet1: ratio in parentheses
T3 construct: C-terminal catalytic domain (aa 241 to 539) of S. cerevisiae RTPase (SceCet1); made in house; host or cells: Escherichia coli
T3 sequence (O13297 241-539): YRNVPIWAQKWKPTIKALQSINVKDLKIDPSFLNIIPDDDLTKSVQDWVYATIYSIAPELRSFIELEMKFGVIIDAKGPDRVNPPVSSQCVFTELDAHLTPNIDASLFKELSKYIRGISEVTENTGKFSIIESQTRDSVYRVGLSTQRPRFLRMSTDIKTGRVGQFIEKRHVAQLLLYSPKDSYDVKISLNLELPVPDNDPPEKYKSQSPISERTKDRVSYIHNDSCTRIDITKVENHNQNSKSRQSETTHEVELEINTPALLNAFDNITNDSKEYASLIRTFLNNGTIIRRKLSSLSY

[7] = molecular target: T4, CthTTM (Acetivibrio thermocellus, UniProt A3DIJ8); test: TLC assay for 32Pi release from [γ-32P]ATP, CthTTM; type: biochemical, Clostridium thermocellum; conditions: for IC50/IC50 TbCet1, CthTTM: ratio in parentheses
T4 sequence (A3DIJ8 1-156): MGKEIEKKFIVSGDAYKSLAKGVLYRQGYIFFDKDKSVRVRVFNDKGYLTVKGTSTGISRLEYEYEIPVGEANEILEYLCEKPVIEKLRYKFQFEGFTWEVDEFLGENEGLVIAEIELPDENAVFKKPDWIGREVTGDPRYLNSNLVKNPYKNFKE

[8] = molecular target: T5, Lef4 (Autographa californica nuclear polyhedrosis virus, UniProt P41477); test: TLC assay for 32Pi release from [γ-32P]ATP, Lef4; type: biochemical, Autographa californica nucleopolyhedrovirus (AcNPV); conditions: for IC50/IC50 TbCet1, Lef4: ratio in parentheses;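 as to all read-outs here: Lef4 RNA triphosphatase cleaving radiolabelled ATP over 10 min at 37°C, hydrolysis set relative to inhibitor-free 5% DMSO controls, comparisons made against TbCet1 tested the same way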
T5 construct: the N-terminal RTPase domain (aa 1 to 236) of AcNPV Lef4 capping enzyme; HisSmt3 (N, cleaved yes); made in house; host or cells: Escherichia coli
T5 sequence (P41477 1-236): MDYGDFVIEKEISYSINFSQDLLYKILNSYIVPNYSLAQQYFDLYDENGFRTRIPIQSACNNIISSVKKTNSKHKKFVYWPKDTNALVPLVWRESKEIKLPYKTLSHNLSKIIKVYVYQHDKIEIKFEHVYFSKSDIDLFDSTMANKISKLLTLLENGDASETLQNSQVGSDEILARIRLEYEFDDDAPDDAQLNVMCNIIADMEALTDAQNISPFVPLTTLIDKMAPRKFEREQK

[9] = system: CthTTM; test: TLC assay for 32Pi release from [γ-32P]ATP, CthTTM; type: biochemical, Clostridium thermocellum
[10] = molecular target: T1, TbCet1; design: Recombinant full-length T. brucei RTPase TbCet1; HisSmt3 (N, cleaved yes); made in house; host or cells: Escherichia coli; method as in PMID 14525979; conditions: ATP substrate Km 25 µM; read-out: Ki, competitive inhibitor of TbCet1; cited from earlier work
[11] = read-out: IC50 TbCet1 by 32P assay
[12] = read-out: IC50 by HTS assay, colorimetric phosphate release from ATP, Mn2+
[13] = 25 nM SceCet1, 30°C, read-out: IC50 SceCet1
[14] = 500 nM CthTTM, 37°C, read-out: IC50 CthTTM
[15] = 50 nM Lef4, 37°C, read-out: IC50 Lef4
[16] = 7 nM MimiCE, 37°C, read-out: IC50 MimiCE

O=C(/C=C/c1ccc(O)c(O)c1)O[C@@H]1CC(O)(C(=O)O)C[C@@H](OC(=O)/C=C/c2ccc(O)c(O)c2)C1O (some centres unmarked) [Compound 1B, 3,5-O-dicaffeoylquinic acid]
activity against Leishmania amazonensis [1]: inactive | activity against Trypanosoma cruzi amastigotes [2]: inactive | IC50 [3, 11]: 0.07 µM | IC50 [4, 12]: 0.04 µM

O=C(/C=C/c1ccc(O)cc1)OC1[C@H](O)CC(O)(C(=O)O)C[C@H]1O (some centres unmarked) [Compound 1N]
IC50 [5]: > 500 µM | IC50 [6, 13]: > 500 µM | IC50 [7, 14]: > 500 µM | IC50 [8, 15]: > 500 µM | IC50 ([3]; IC50 TbCet1 by 32P assay): 25 µM

O=C(O[C@@H]1C[C@@](O)(C(=O)O)C[C@@H](O)[C@@H]1O)c1cc(O)c(O)c(O)c1 [Compound 1O, 5-galloylquinic acid]
IC50 [5]: > 500 µM | activity against MimiCE (in words) [5]: no activity | IC50 [6]: 10 µM | IC50/IC50 TbCet1, SceCet1 [6]: 0.08 | IC50 [7]: > 500 µM | activity against CthTTM (in words) [7]: no activity | activity against Lef4 (in words) [8]: no activity | IC50 [8, 15]: > 500 µM | IC50 ([3]; IC50 TbCet1 by 32P assay): 125 µM

O=C(OC[C@H]1O[C@@H](OC(=O)c2cc(O)c(O)c(O)c2)[C@H](OC(=O)c2cc(O)c(O)c(O)c2)[C@@H](OC(=O)c2cc(O)c(O)c(O)c2)[C@@H]1OC(=O)c1cc(O)c(O)c(O)c1)c1cc(O)c(O)c(O)c1 [Compound 2A, pentagalloylglucose]
IC50 [5]: 5.1 µM | IC50 ([6]; read-out: IC50 SceCet1): 3.2 µM | IC50 [8]: 59 µM | IC50 ([3]; IC50 TbCet1 by 32P assay): 0.046 µM | IC50 [4]: 0.04 µM

O=C(CCO[C@@H]1O[C@H](CO)[C@@H](O)[C@H](O)[C@H]1O)c1ccc(O)cc1 [Compound 2B, 3-O-(4-hydroxyphenylpropanone)-1-glucopyranoside]
fold lower potency against MimiCE than against TbCet1 [5]: 180 fold | IC50/IC50 TbCet1, MimiCE [5]: 182 | IC50 ([5]; read-out: IC50 MimiCE, 7 nM MimiCE, 37°C): 120 µM | fold lower potency against SceCet1 than against TbCet1 [6]: 62 fold | IC50/IC50 TbCet1, SceCet1 [6]: 62 | IC50 ([6]; read-out: IC50 SceCet1, 25 nM SceCet1, 30°C): 41 µM | fold lower potency against CthTTM than against TbCet1 [7]: 44 fold | IC50/IC50 TbCet1, CthTTM [7]: 44 | IC50 ([7]; read-out: IC50 CthTTM, 500 nM CthTTM, 37°C): 29 µM | IC50 [8, 15]: 150 µM | IC50/IC50 TbCet1, Lef4 [8]: 227 | IC50 [3, 11]: 0.66 µM | IC50 [4, 12]: 1.1 µM

O=C(/C=C/c1ccc(O)c(O)c1)O[C@H](Cc1ccc(O)c(O)c1)C(=O)O [Compound 3A, rosmarinic acid]
IC50 ([3]; IC50 TbCet1 by 32P assay): 0.12 µM | IC50 [4]: 0.05 µM

O=C(O)/C=C/c1ccc(O)c(O)c1 [Compound 3B, caffeic acid]
IC50 [5]: > 500 µM | activity against MimiCE (in words) [5]: inactive | IC50 [6]: > 500 µM | IC50 [7, 14]: 310 µM | IC50 [8]: 75 µM | IC50 ([3]; IC50 TbCet1 by 32P assay): 29 µM

O=C(O)C1OC(Oc2c(-c3ccc(O)c(O)c3)oc3cc(O)cc(O)c3c2=O)C(O)C(O)C1O (centres unmarked) [Compound 4A, miquelianin]
IC50 [5, 16]: 19 µM | IC50/IC50 TbCet1, MimiCE [5]: 106 | IC50 [6]: 43 µM | IC50/IC50 TbCet1, SceCet1 [6]: 239 | IC50 [7]: 24 µM | IC50/IC50 TbCet1, CthTTM [7]: 133 | IC50 [8]: 29 µM | IC50/IC50 TbCet1, Lef4 [8]: 161 | IC50 ([3]; IC50 TbCet1 by 32P assay): 0.18 µM | IC50 [4]: 0.18 µM

O=c1c(O)c(-c2cc(O)c(O)c(O)c2)oc2cc(O)cc(O)c12 [Compound 4B, myricetin]
IC50 ([3]; IC50 TbCet1 by 32P assay): 0.36 µM | IC50 [4]: 0.23 µM

Oc1cc(O)c2c(c1)O[C@H](c1ccc(O)c(O)c1)[C@H](O)C2 [Compound 4C, epicatechin]
IC50 [5, 16]: 10 µM | IC50/IC50 TbCet1, MimiCE [5]: 40 | IC50 [6]: 8.7 µM | IC50/IC50 TbCet1, SceCet1 [6]: 35 | IC50 [7, 14]: 26 µM | IC50/IC50 TbCet1, CthTTM [7]: 104 | IC50 [8]: 34 µM | IC50/IC50 TbCet1, Lef4 [8]: 136 | IC50 ([3]; IC50 TbCet1 by 32P assay): 0.25 µM | IC50 [4]: 0.26 µM

O=C(CCO)c1ccc(O)cc1 [Compound 5, 3-hydroxy-1-(4-hydroxyphenyl)propan-1-one]
IC50 [5, 16]: 84 µM | IC50/IC50 TbCet1, MimiCE [5]: 131 | IC50 [6]: > 500 µM | activity against SceCet1 (in words) [6]: no effect | IC50 [7, 14]: 9.2 µM | IC50/IC50 TbCet1, CthTTM [7]: 14 | IC50 [8]: 160 µM | IC50/IC50 TbCet1, Lef4 [8]: 250 | IC50 ([3]; IC50 TbCet1 by 32P assay): 0.64 µM | IC50 [4]: 0.63 µM

O=C(/C=C/c1ccc(O)c(O)c1)O[C@@H]1[C@H](OC(=O)/C=C/c2ccc(O)c(O)c2)C[C@]2(OC(=O)/C=C/c3ccc(O)c(O)c3)C[C@H]1OC2=O [Compound 6A, 1,4,5-tricaffeoylquinide]
IC50 [5]: 2 µM | IC50/IC50 TbCet1, MimiCE [5]: 17 | IC50 [6]: 2 µM | IC50/IC50 TbCet1, SceCet1 [6]: 17 | IC50 [7]: 6.4 µM | IC50/IC50 TbCet1, CthTTM [7]: 53 | IC50 [8, 15]: 2.6 µM | IC50/IC50 TbCet1, Lef4 [8]: 22 | IC50 ([3]; IC50 TbCet1 by 32P assay): 0.12 µM

O=C(C=Cc1ccccc1)OC1C=C(C(=O)O)CC(OC(=O)C=Cc2ccccc2)C1OC(=O)C=Cc1ccccc1 (centres unmarked) [Compound 6B, 3,4,5-tricinnamoylshikimic acid]
IC50 [5, 16]: 19 µM | IC50/IC50 TbCet1, MimiCE [5]: 13 | activity against SceCet1 (in words) [6]: inactive | IC50 [6, 13]: > 500 µM | fold lower potency against CthTTM than against TbCet1 [9]: 100 fold | IC50 ([9]; 500 nM CthTTM, 37°C): 150 µM | IC50/IC50 TbCet1, CthTTM ([9]; ratio in parentheses): 100 | IC50 [8, 15]: 10 µM | IC50/IC50 TbCet1, Lef4 [8]: 7 | IC50 [3, 11]: 1.5 µM

CC(=O)O[C@@]12C[C@@H](OC(=O)/C=C/c3ccc(O)c(O)c3)[C@@H](OC(=O)/C=C/c3ccc(O)c(O)c3)[C@@H](C1)OC2=O [Compound 6C, 1-acetyl,4,5-dicaffeoylquinide]
IC50 [5]: 15 µM | IC50/IC50 TbCet1, MimiCE [5]: 4 | IC50 [6]: 14 µM | IC50/IC50 TbCet1, SceCet1 [6]: 4 | IC50 [7]: 46 µM | IC50/IC50 TbCet1, CthTTM [7]: 13 | IC50 [8, 15]: 21 µM | IC50/IC50 TbCet1, Lef4 [8]: 6 | IC50 ([3]; IC50 TbCet1 by 32P assay): 3.6 µM | fold lowered potency against TbCet1 versus compound 6A ([3]; acetate for the R1 caffeic acid): 30 fold

O=P(O)(O)OP(=O)(O)OP(=O)(O)O [Tripolyphosphate]
Ki [10]: 1.4 µM

pentagalloylgalloylglucose [tannic acid]
IC50 ([4]; read-out: IC50 TbCet1, small-scale test library screens performed here and previously [37]): 0.06 µM
